Source: patent publication US10294275B2, “Site-selective functionalization of glycopeptide antibiotics” (Yale University, priority 2012, dated 2019)
≈ marks a conversion by molar mass, not a printed value.

How the values were obtained:
[1] = tested on: methicillin-susceptible S. aureus, ATCC 29213; test: Minimum inhibitory concentration against MSSA; format: cell-based; conditions: Staphylococcus aureus, read-out: MIC, MSSA
Description: (§1) The chemistry described above enabled direct synthesis of eleven previously unknown analogs of 3. The minimum inhibitory concentrations (MICs) for the new analogs as antibacterial agents as determined.

[2] = tested on: methicillin-resistant S. aureus, ATCC 43300; test: Minimum inhibitory concentration against MRSA; format: cell-based; conditions: Staphylococcus aureus, read-out: MIC, MRSA
Description: as §1

[3] = tested on: vancomycin-susceptible enterococci, ATCC 29212; test: Minimum inhibitory concentration against VSE; format: cell-based; conditions: read-out: MIC, VSE
Description: as §1

[4] = tested on: vancomycin-resistant enterococci (VanB), ATCC 51299; test: Minimum inhibitory concentration against VRE (VanB); format: cell-based; conditions: Enterococcus, read-out: MIC, VRE (VanB)
Description: as §1

[5] = tested on: vancomycin-resistant enterococci (VanA), MMX 486; test: Minimum inhibitory concentration against VRE (VanA); format: cell-based; conditions: Enterococcus, VRE, read-out: MIC, VRE (VanA)
Description: as §1

Staphylococcus aureus = conditions: cited from earlier work

## CN[C@H](CC(C)C)C(=O)N[C@H]1C(=O)N[C@@H](CC(N)=O)C(=O)N[C@H]2C(=O)N[C@H]3C(=O)N[C@H](C(=O)N[C@H](C(=O)O)c4cc(O)cc(O)c4-c4cc3ccc4O)[C@H](O)c3ccc(c(Cl)c3)Oc3cc2cc(c3O[C@@H]2O[C@H](CO)[C@@H](O)[C@H](O)[C@H]2O[C@H]2C[C@](C)(N)[C@H](O)[C@H](C)O2)Oc2ccc(cc2Cl)[C@H]1O [Vancomycin, vancomycin, reference compound]
[1]
  MIC: 0.5 µg/mL (≈ 0.345 µM)
[2]
  MIC: 1 µg/mL (≈ 0.69 µM)
[3]
  MIC: 2 µg/mL (≈ 1.38 µM)
[4]
  MIC: 16 µg/mL (≈ 11 µM)
[5]
  MIC: > 64 µg/mL
Staphylococcus aureus
  in vitro MIC against Staphylococcus aureus: 0.25 to 10 µg/mL
